Reference: patent publication US20230381172A1, “COMBINATIONS OF BCL-2 INHIBITORS WITH CHEMOTHERAPEUTIC AGENTS” (RECURIUM IP HOLDINGS, LLC, priority 2020, published 2023)

What was measured:
[1] = test system: HL-60 cells (human myeloid leukemia cell line); test: In vivo efficacy, HL-60 leukemia xenograft model (azacitidine combination, FIG. 5); conditions: HL-60 s.c. xenograft in mice; Compound 5A 50 mg/kg p.o. qd×19; Azacitidine 2.5 mg/kg i.p. qd 5 days on 2 days off; alone or combined
Procedure: Mice were inoculated with HL-60 cells (human myeloid leukemia cell line) subcutaneously on the right flank with the single cell suspension of 95% viable tumor cells (1×10^7) in 100 μL IMDM Matrigel mixture (1:1 ratio) without serum for the tumor development. The treatment was started when the mean tumor size reached approximately 222 mm^3, with individual tumor size ranging from 185-245 mm^3. Animals were randomly distributed into treatment groups of 10 animals each and dosed with vehicle and indicated compounds at indicated dosage and frequency shown in FIG. 5 and Table 3. In FIG. 5, the top line (indicated with circles) is Vehicle control, the second from the top line (indicated with triangles) is Azacitidine (2.5 mg/kg 5 mL/kg i.p. qd (5 days on, 2 days off,)), the second from the bottom line (indicated with circles) is Compound 5A (50 mg/kg 10 mL/kg p.o. qd×19) and the bottom line (indicated with triangles) is Compound 5A (50 mg/kg p.o. qd×19)+Azacitidine (2.5 mg/kg i.p. qd 5×3 (5 days on 2 days off)). Tumor volumes were evaluated twice per week to calculate tumor volume over time, and mice were weighed twice per week as a surrogate for signs of toxicity. Tumor growth inhibition (TGI) was calculated using the following equation TGI=(1-(Td−T0)/(Cd−C0))×100%. […]

[2] = test system: MOLM-13 cells; test: In vitro cell assay, CellTiter-Glo cell viability, MOLM-13; format: cell-based; conditions: 20,000 MOLM-13 cells, 72 h, CTG; 5 nM Compound 5A, 1,500 nM azacitidine, single agent or combination of both
Procedure: (§1) The cells were incubated with the indicated compound at the indicated concentration as described below. The combination indices (CI) were calculated using formula […]. A and B are the percent cell inhibition by single agent treatment, and AB is the percent cell inhibition by the combination.
(§2) For each cell line, the cell viability was assessed using a CellTiter-Glo® (CTG) assay.

[3] = test system: HL-60 cells; test: In vitro cell assay, CellTiter-Glo cell viability, HL-60; format: cell-based, human; conditions: 10,000 HL-60 cells, 72 h, CTG; 150 nM Compound 5A, 5,000 nM azacitidine, single agent or combination of both
Procedure: as §1, §2

[4] = test system: RS4;11 cells; test: In vitro cell assay, CellTiter-Glo cell viability, RS4;11; format: cell-based; conditions: 50,000 RS4;11 cells, 72 h, CTG; 5 nM Compound 5A, 1,500 nM azacitidine, single agent or combination of both
Procedure: as §1, §2

[5] = test system: MV4-11 cells; test: In vitro cell assay, CellTiter-Glo cell viability, MV4-11; format: cell-based; conditions: 20,000 MV4-11 cells, 72 h, CTG; 25 nM Compound 5A, 2,272 nM azacitidine, single agent or combination of both
Procedure: as §1, §2

[6] = test system: KMS-12-BM cells; test: In vivo efficacy, KMS-12-BM model (bortezomib combination, FIG. 7); conditions: KMS-12-BM s.c. xenograft in mice; Compound 5A 50 mg/kg p.o. qd×21; Bortezomib 0.5 mg/kg i.p. BIW; alone or combined
Procedure: Mice were inoculated with KMS-12-BM cells ([…]) subcutaneously on the right flank with the single cell suspension of 95% viable tumor cells (1×10^7) in 100 μL IMDM Matrigel mixture (1:1 ratio) without serum for the tumor development. The treatment was started when the mean tumor size reached approximately 222 mm^3, with individual tumor size ranging from 185-245 mm^3. Animals were randomly distributed into treatment groups of 10 animals each and dosed with vehicle and indicated compounds at indicated dosage and frequency shown in FIG. 7 and Table 3. In FIG. 7, the top line (indicated with diamonds) is Vehicle control, the second from the top line (indicated with squares) is Compound 5A (50 mg/kg), the second from the bottom line (indicated with “x”) is Bortezomib (0.5 mg/kg) and the bottom line ([…]). Tumor volumes were evaluated twice per week to calculate tumor volume over time, and mice were weighed twice per week as a surrogate for signs of toxicity. Tumor growth inhibition (TGI) was calculated using the following equation TGI=(1−(Td−T0)/(Cd−C0))×100%. Td and Cd are the mean tumor volumes of the treated and control animals, and T0 and C0 are the mean tumor volumes of the treated and control animals at the start of the experiment. The tumor regression was defined as individual tumor volume (TV) decrease (terminal TV compared to initial TV).

[7] = test system: HL-60 cells (human myeloid leukemia cell line); test: In vivo efficacy, HL-60 leukemia xenograft model (cytarabine combination, FIG. 6); conditions: HL-60 s.c. xenograft in mice; Compound 5A 25 mg/kg p.o. qd×19; Cytarabine 5 mg/kg i.p. qd 5 days on 2 days off; alone or combined
Procedure: Mice were inoculated with HL-60 cells (human myeloid leukemia cell line) subcutaneously on the right flank with the single cell suspension of 95% viable tumor cells (1×10^7) in 100 μL IMDM Matrigel mixture (1:1 ratio) without serum for the tumor development. The treatment was started when the mean tumor size reached approximately 218 mm^3, with individual tumor size ranging from 185-245 mm^3. Animals were randomly distributed into treatment groups of 10 animals each and dosed with vehicle and indicated compounds at indicated dosage and frequency shown in FIG. 6 and Table 3. In FIG. 6, the top line (indicated with triangles) is Cytarabine (5.0 mg/kg), the second from the top line (indicated with circles) is Vehicle control, the second from the bottom line (indicated with diamonds) is Compound 5A (25 mg/kg) and the bottom line (indicated with circles) is Compound 5A (25 mg/kg p.o. qd×19)+Cytarabine (5 mg/kg i.p. qd 5×3 (5 days on 2 days off)). Tumor volumes were evaluated twice per week to calculate tumor volume over time, and mice were weighed twice per week as a surrogate for signs of toxicity. Tumor growth inhibition (TGI) was calculated using the following equation TGI=(1−(Td−T0)/(Cd−C0))×100%. Td and Cd are the mean tumor volumes of the treated and control animals, and TO and CO are the mean tumor volumes of the treated and control animals at the start of the experiment. […]

[8] = test system: DOHH cells (non-Hodgkin's cell line); test: In vivo efficacy, DOHH non-Hodgkin's model (bendamustine combination, FIG. 8); conditions: DOHH s.c. xenograft in mice; Compound 5A 100 mg/kg p.o. qd×13; Bendamustine 25 mg/kg i.v. qd×1; alone or combined
Procedure: Tumor volumes were evaluated twice per week to calculate tumor volume over time, and mice were weighed twice per week as a surrogate for signs of toxicity. Tumor growth inhibition (TGI) was calculated using the following equation TGI=(1−(Td−T0)/(Cd−C0))×100%. Td and Cd are the mean tumor volumes of the treated and control animals, and T0 and C0 are the mean tumor volumes of the treated and control animals at the start of the experiment. The tumor regression was defined as individual tumor volume (TV) decrease (terminal TV compared to initial TV).

Nc1ncn([C@@H]2O[C@H](CO)[C@@H](O)[C@H]2O)c(=O)n1 [Azacitidine, azacitidine]
TGI % Day 18 [1]: 11%
MOLM-13 % inhibition [2]: 47.0%
HL60 % inhibition [3]: 21.6%
RS4;11 % inhibition [4]: 32.5%
MV4;11 % inhibition [5]: 82.9%

CC(C)C[C@H](NC(=O)[C@H](Cc1ccccc1)NC(=O)c1cnccn1)B(O)O [Bortezomib, bortezomib]
TGI % Day 14 [6]: 46%

Nc1ccn([C@@H]2O[C@H](CO)[C@@H](O)[C@@H]2O)c(=O)n1 [Cytarabine]
TGI % Day 18 [7]: −6%

Cn1c(CCCC(=O)O)nc2cc(N(CCCl)CCCl)ccc21 [Bendamustine]
TGI % Day 26 [8]: 44%
